Results published in patent publication US5178662A, “Benzaldehyde acetal compounds, preparation process thereof, and herbicidal compositions containing the same as active ingredients” (Mitsui Toatsu Chemicals, Inc., priority 1990, dated 1993).

What follows are compounds tested on ALS (acetolactate syntase) from barnyardgrass seedlings (assay: ALS (acetolactate syntase) inhibition test, barnyardgrass enzyme). Details: 10,000 ppm (0.5 μg/0.5 ml) of compound; 1 hour at 30° C.; absorbance at 525 nm.
Assay type: biochemical
Description: (§1) To determine the selectivity in enzyme level between crops and weeds, an ALS inhibition test was conducted using pea as a typical broadleaf crop and barnyardgrass as a representative gramineous weeds.
(§2) After seeds of pea and barnyardgrass were allowed to germinate at 25° C. for 8-14 days in a dark place, partially-purified suspensions (Suspensions A) of acetolactate syntase were separately obtained from the seedlings in accordance with the procedures described in the literature, Plant Physiology, 75, 827-831. In a test tube, 0.5 mg of one of test compounds was weighed, followed by the addition of 0.15 ml of a 20 mM K2 HPO4 solution and 0.25 ml of a reaction substrate medium which consisted of 40 mM of K2 HPO4, 40 mM of sodium pyruvate, 1 mM of TPP, 1 mM of MgCl2 and 20 μM of FAD so that 0.4 ml of a reaction solution (Solution B) was prepared. Added to 0.4 ml of Solution B was 0.1 ml of Suspension A. After the resultant mixture was shaken for 1 hour in a thermostat water bath controlled at 30° C., 50 μl of 6N sulfuric acid were added to terminate the reaction.
(§3) Next, the test tube with the reaction-terminated liquid mixture contained therein was transferred into a thermostat water bath controlled at 60° C. and was heated for 15 minutes. Thereafter, 0.5 ml of a 0.5% creatine solution and 0.5 ml of a 5% alkaline α-naphthol solution were added, and the resultant mixture was maintained at 60° C. for 15 minutes. As a result, the test solution developed a pink-to-red color. After the above operation, the absorbance of the test solution at 525 nm was measured by a spectrophotometer (Absorbance 1 of Test Compound).
(§4) Further, the absorbance (Absorbance 2 of Blank) of a solution obtained by subjecting a portion of Solution B to the above procedures without addition of any test compound and the absorbance (Absorbance 3 of sulfuric acid) of another solution obtained by subjecting another portion of Solution B to the above procedures which using 50 μl of 6N sulfuric acid as a test compound were also measured.

Row | SMILES | Enzymoreaction inhibition rate (%) Barnyardgrass [%]
1 | CCCCOC(OCCCC)c1ccccc1Oc1nc(OC)cc(OC)n1 [Compound No. 3, 2-(4,6-dimethoxypyrimidin-2-yloxy)benzaldehyde di-n-butylacetal] | 100

Each compound was assayed on Soybean (Glycine max) (assay: Upland soil application test, crop injury soybean). Details: soil application one day after seeding, 50 g ai/a, wettable powder, fresh weight on 50th day after spray.
Assay type: in vivo
Description: (§5) Resin-made 1/1000-are pots were filled with the soil of an upland field. After they were fertilized, cotton and soybean were seeded and 3 cm soil covering was applied. In addition, amaranth, common lambs-quarters, barnyardgrass, green foxtail, large crabgrass and johnsongrass were seeded and 1 cm soil covering was applied. One day later, a wettable powder prepared from a predetermined amount of each test compound in a similar manner to the procedures described in Formulation Example 1 was diluted with water and then sprayed evenly at an application rate equal to 10 l per are onto the surface of the soil by means of a pressure-operated sprayer. The weeds and crops were allowed to grow in a green house and influence to them were observed on the 50th day after the spray. The degree of damages of each test plant and the degree of injury to each crop were determined by measuring fresh weight in each group and indicated by % calculated according to the following formula. [formula]

Row | SMILES | Crop injury Soybean (Glycine max) [%]
2 | CCCCOC(OCCCC)c1ccccc1Oc1nc(OC)cc(OC)n1 [Compound No. 3, 2-(4,6-dimethoxypyrimidin-2-yloxy)benzaldehyde di-n-butylacetal] | 0

The compounds below were run on Crabgrass (Digitaria adscendens) (assay: Upland soil application test, large crabgrass). Details: 1200 h, soil application one day after seeding, 50 g ai/a, wettable powder, fresh weight on 50th day after spray, read-out: Herbicidal effects Crabgrass (Digitaria adscendens).
Assay type: in vivo
Description: as §5

Row | SMILES | pest or weed control at 5000 g/ha [%]
3 | CCCCOC(OCCCC)c1ccccc1Oc1nc(OC)cc(OC)n1 [Compound No. 3, 2-(4,6-dimethoxypyrimidin-2-yloxy)benzaldehyde di-n-butylacetal] | 100

These compounds were tested on Crabgrass (Digitaria adscendens) (assay: Upland foliar application test, large crabgrass). Details: 960 h, foliar application at stage of 2-3 leaves, 50 g ai/a, emulsion, 40th day after spray, read-out: Herbicidal effects Crabgrass (Digitaria adscendens).
Assay type: in vivo
Description: as §5
(§6) Resin-made 1/1000-are pots were filled with the soil of an upland field. After they were fertilized, cotton and soybean were seeded and 3 cm soil covering was applied. Five days later, amaranth, common lambsquarters, barnyardgrass, green foxtail, large crabgrass and johnsongrass were seeded and 1 cm soil covering was applied. They were allowed to grow in a green house. When each plant grew to the stage of 2-3 leaves, an emulsion formulated from a predetermined amount of each test compound in a similar manner to the procedures described in Formulation Example 11 was diluted with water and then sprayed at a predetermined application rate by means of a pressure-operated sprayer. The application rate was controlled at 5 l per are. Influence to the crops and weeds were observed on the 40th day after the spray of the herbicides. The results are shown in Table 4 in which the degree of damages of each test plant and the degree of injury to each crop are shown in a similar manner to Test 2.

Row | SMILES | pest or weed control at 5000 g/ha [%]
4 | CCCCOC(OCCCC)c1ccccc1Oc1nc(OC)cc(OC)n1 [Compound No. 3, 2-(4,6-dimethoxypyrimidin-2-yloxy)benzaldehyde di-n-butylacetal] | 100

Each compound was assayed on Cotton (Gossypium indicum) (assay: Upland foliar application test, crop injury cotton). Details: foliar application at stage of 2-3 leaves, 50 g ai/a, emulsion, 40th day after spray.
Assay type: in vivo
Description: as §5, §6

Row | SMILES | Crop injury Cotton (Gossypium indicum) [%]
5 | CCCCOC(OCCCC)c1ccccc1Oc1nc(OC)cc(OC)n1 [Compound No. 3, 2-(4,6-dimethoxypyrimidin-2-yloxy)benzaldehyde di-n-butylacetal] | 0

These compounds were tested on Johnsongrass (assay: Upland soil application test, johnsongrass). Details: Sorghum halepense, 1200 h; soil application one day after seeding, 50 g ai/a, wettable powder, fresh weight on 50th day after spray; read-out: Herbicidal effects Johnsongrass.
Assay type: in vivo
Description: as §5

Row | SMILES | pest or weed control at 5000 g/ha [%]
6 | CCCCOC(OCCCC)c1ccccc1Oc1nc(OC)cc(OC)n1 [Compound No. 3, 2-(4,6-dimethoxypyrimidin-2-yloxy)benzaldehyde di-n-butylacetal] | 100

The compounds below were run on Amaranth (Amaranthus viridis) (assay: Upland foliar application test, amaranth). Details: 960 h, foliar application at stage of 2-3 leaves, 50 g ai/a, emulsion, 40th day after spray, read-out: Herbicidal effects Amaranth (Amaranthus viridis).
Assay type: in vivo
Description: as §5, §6

Row | SMILES | pest or weed control at 5000 g/ha [%]
7 | CCCCOC(OCCCC)c1ccccc1Oc1nc(OC)cc(OC)n1 [Compound No. 3, 2-(4,6-dimethoxypyrimidin-2-yloxy)benzaldehyde di-n-butylacetal] | 100

What follows are compounds tested on Foxtail (Setaria viridis) (assay: Upland foliar application test, green foxtail). Details: 960 h, foliar application at stage of 2-3 leaves, 50 g ai/a, emulsion, 40th day after spray, read-out: Herbicidal effects Foxtail (Setaria viridis).
Assay type: in vivo
Description: as §5, §6

Row | SMILES | pest or weed control at 5000 g/ha [%]
8 | CCCCOC(OCCCC)c1ccccc1Oc1nc(OC)cc(OC)n1 [Compound No. 3, 2-(4,6-dimethoxypyrimidin-2-yloxy)benzaldehyde di-n-butylacetal] | 100

These compounds were tested on Johnsongrass (assay: Upland foliar application test, johnsongrass). Details: Sorghum halepense, 960 h; foliar application at stage of 2-3 leaves, 50 g ai/a, emulsion, 40th day after spray; read-out: Herbicidal effects Johnsongrass.
Assay type: in vivo
Description: as §6

Row | SMILES | pest or weed control at 5000 g/ha [%]
9 | CCCCOC(OCCCC)c1ccccc1Oc1nc(OC)cc(OC)n1 [Compound No. 3, 2-(4,6-dimethoxypyrimidin-2-yloxy)benzaldehyde di-n-butylacetal] | 100

These compounds were tested on Barnyardgrass (Echinochloa crusgalli) (assay: Upland foliar application test, barnyardgrass). Details: Echinochloa crus-galli, 960 h; foliar application at stage of 2-3 leaves, 50 g ai/a, emulsion, 40th day after spray; read-out: Herbicidal effects Barnyardgrass (Echinochloa crusgalli).
Assay type: in vivo
Description: as §6

Row | SMILES | pest or weed control at 5000 g/ha [%]
10 | CCCCOC(OCCCC)c1ccccc1Oc1nc(OC)cc(OC)n1 [Compound No. 3, 2-(4,6-dimethoxypyrimidin-2-yloxy)benzaldehyde di-n-butylacetal] | 100

Each compound was assayed on Foxtail (Setaria viridis) (assay: Upland soil application test, green foxtail). Details: 1200 h, soil application one day after seeding, 50 g ai/a, wettable powder, fresh weight on 50th day after spray, read-out: Herbicidal effects Foxtail (Setaria viridis).
Assay type: in vivo
Description: as §5

Row | SMILES | pest or weed control at 5000 g/ha [%]
11 | CCCCOC(OCCCC)c1ccccc1Oc1nc(OC)cc(OC)n1 [Compound No. 3, 2-(4,6-dimethoxypyrimidin-2-yloxy)benzaldehyde di-n-butylacetal] | 100

Each compound was assayed on common lambsquarters (assay: Upland soil application test, common lambsquarters). Details: Chenopodium album, 1200 h; soil application one day after seeding, 50 g ai/a, wettable powder, fresh weight on 50th day after spray; read-out: Herbicidal effects Common lambquarters.
Assay type: in vivo
Description: as §5

Row | SMILES | pest or weed control at 5000 g/ha [%]
12 | CCCCOC(OCCCC)c1ccccc1Oc1nc(OC)cc(OC)n1 [Compound No. 3, 2-(4,6-dimethoxypyrimidin-2-yloxy)benzaldehyde di-n-butylacetal] | 100

Each compound was assayed on ALS (acetolactate syntase) from pea seedlings (assay: ALS (acetolactate syntase) inhibition test, pea enzyme). Details: 10,000 ppm (0.5 μg/0.5 ml) of compound; 1 hour at 30° C.; absorbance at 525 nm.
Assay type: biochemical
Description: as §1, §2, §3, §4

Row | SMILES | Enzymoreaction inhibition rate (%) Pea [%]
13 | CCCCOC(OCCCC)c1ccccc1Oc1nc(OC)cc(OC)n1 [Compound No. 3, 2-(4,6-dimethoxypyrimidin-2-yloxy)benzaldehyde di-n-butylacetal] | 0

These compounds were tested on common lambsquarters (assay: Upland foliar application test, common lambsquarters). Details: Chenopodium album, 960 h; foliar application at stage of 2-3 leaves, 50 g ai/a, emulsion, 40th day after spray; read-out: Herbicidal effects Common lambquarters.
Assay type: in vivo
Description: as §6

Row | SMILES | pest or weed control at 5000 g/ha [%]
14 | CCCCOC(OCCCC)c1ccccc1Oc1nc(OC)cc(OC)n1 [Compound No. 3, 2-(4,6-dimethoxypyrimidin-2-yloxy)benzaldehyde di-n-butylacetal] | 100

What follows are compounds tested on Barnyardgrass (Echinochloa crusgalli) (assay: Upland soil application test, barnyardgrass). Details: Echinochloa crus-galli, 1200 h; soil application one day after seeding, 50 g ai/a, wettable powder, fresh weight on 50th day after spray; read-out: Herbicidal effects Barnyardgrass (Echinochloa crusgalli).
Assay type: in vivo
Description: as §5

Row | SMILES | pest or weed control at 5000 g/ha [%]
15 | CCCCOC(OCCCC)c1ccccc1Oc1nc(OC)cc(OC)n1 [Compound No. 3, 2-(4,6-dimethoxypyrimidin-2-yloxy)benzaldehyde di-n-butylacetal] | 100

The compounds below were run on johnsongrass emerging from rhizome (assay: Application test on johnsongrass emerging from rhizome). Details: foliar application at stage of 4-5 leaves, application rate of active ingredient 20 (unit not given), emulsion, 50th day after spray.
Assay type: in vivo
Description: as §5
Resin-made 1/1000-are pots were filled with the soil of an upland field. After they were fertilized, rhizome of johnsongrass were transplanted to the pots and 3 cm soil covering was applied. They were allowed to grow in a green house. When each johnsongrass grew to the stage of 4-5 leaves, an emulsion formulated from a predetermined amount of each test compound in a similar manner to the procedures described in Formulation Example 11 was diluted with water and then sprayed at a predetermined application rate by means of a pressure-operated sprayer. The application rate was controlled at 5 l per are. The effect of each compound against the johnsongrass emerging from its rhizome was observed on the 50th day after the spray of the herbicides. The results are shown in Table 5 in which the herbicidal effect against johnsongrass is shown in a similar manner to Test 2.

Row | SMILES | Herbicidal effect against johnsongrass emerging from rhizome [%]
16 | CCCCOC(OCCCC)c1ccccc1Oc1nc(OC)cc(OC)n1 [Compound No. 3, 2-(4,6-dimethoxypyrimidin-2-yloxy)benzaldehyde di-n-butylacetal] | 100

What follows are compounds tested on Soybean (Glycine max) (assay: Upland foliar application test, crop injury soybean). Details: foliar application at stage of 2-3 leaves, 50 g ai/a, emulsion, 40th day after spray.
Assay type: in vivo
Description: as §6

Row | SMILES | Crop injury Soybean (Glycine max) [%]
17 | CCCCOC(OCCCC)c1ccccc1Oc1nc(OC)cc(OC)n1 [Compound No. 3, 2-(4,6-dimethoxypyrimidin-2-yloxy)benzaldehyde di-n-butylacetal] | 0

What follows are compounds tested on Cotton (Gossypium indicum) (assay: Upland soil application test, crop injury cotton). Details: soil application one day after seeding, 50 g ai/a, wettable powder, fresh weight on 50th day after spray.
Assay type: in vivo
Description: as §5

Row | SMILES | Crop injury Cotton (Gossypium indicum) [%]
18 | CCCCOC(OCCCC)c1ccccc1Oc1nc(OC)cc(OC)n1 [Compound No. 3, 2-(4,6-dimethoxypyrimidin-2-yloxy)benzaldehyde di-n-butylacetal] | 0

The compounds below were run on Amaranth (Amaranthus viridis) (assay: Upland soil application test, amaranth). Details: 1200 h, soil application one day after seeding, 50 g ai/a, wettable powder, fresh weight on 50th day after spray, read-out: Herbicidal effects Amaranth (Amaranthus viridis).
Assay type: in vivo
Description: as §5

Row | SMILES | pest or weed control at 5000 g/ha [%]
19 | CCCCOC(OCCCC)c1ccccc1Oc1nc(OC)cc(OC)n1 [Compound No. 3, 2-(4,6-dimethoxypyrimidin-2-yloxy)benzaldehyde di-n-butylacetal] | 100
